Earlier results on one compound are cited in US11253533B1, “Water dissolvable macrocyclic lactone cyclodextrin complexes” (MOUNTAIN VALLEY MD INC, priority 2020, dated 2022).

`CC[C@H](C)[C@H]1O[C@]2(CC[C@@H]1C)C[C@@H]1C[C@@H](C/C=C(\C)[C@@H](O[C@H]3C[C@H](OC)[C@@H](O[C@H]4C[C@H](OC)[C@@H](O)[C@H](C)O4)[C@H](C)O3)[C@@H](C)/C=C/C=C3\CO[C@@H]4[C@H](O)C(C)=C[C@@H](C(=O)O1)[C@]34O)O2` [Ivermectin, (1R,4S,5'S,6R,6′R,8R,10E,12S,13S,14E,16E,20R,21R,24S)-6′-[(2S)-butan-2-yl]-21,24-dihydroxy-12-[(2R,4S,5S,6S)-5-[(2S,4S,5S,6S)-5-hydroxy-4-methoxy-6-methyloxan-2-yl]oxy-4-methoxy-6-methyloxan-2-yl]oxy-5′,11,13,22-tetramethylspiro[3,7,19-trioxatetracyclo[15.6.1.14,8.020,24]pentacosa-10,14,16,22-tetraene-6,2′-oxane]-2-one]: under “FR 3042412, without an organic solvent”, the “maximum concentration of ivermectin” value was 2 mg per millileter of water. Also, the “solubility of Ivermectin” value (U.S. Pat. No. 4,389,397, with organic solvents, no cyclodextrin) was 7%. The solubility in water entry (at 25 degrees Celsius) is on record as “about 0.005 mg per ml”.
